Structures can show the parent of a compound that is named as a salt.
test system: SKOV-3 cancer cell lines; assay: SKOV-3 cell viability after treatment with 10 μM test compound; type: cell-based; settings: 10 micromolar test compound, dihydrochloride
Procedure: SKOV-3 cancer cell lines were treated with a test compound, either as a pure enantiomer or a mixture of stereoisomers, at a concentration of 10 μM. Cell viability was evaluated following treatment with a compound as disclosed in Table B. Viability of cancer cells following treatment is indicated according to the following legend:
A=0-25% viability B=26-50% viability C=>50% viability

SMILES	% viability after treatment with 10 micromolar of test compound (SKOV-3 cells)
CN[C@@H](C)C(=O)N[C@H]1CCO[C@H]2CC(C)(C)[C@@H](CN[C@@H]3CCSc4ccccc43)N2C1=O [Compound 67, (S)—N-((4S,7S,9aS)-8,8-dimethyl-5-oxo-7-((((R)-thiochroman-4-yl)amino)methyl)octahydropyrrolo[2,1-b][1,3]oxazepin-4-yl)-2-(methylamino)propanamide dihydrochloride]	B (B=26-50% viability)
CN[C@@H](C)C(=O)N[C@H]1CCO[C@H]2CC(C)(C)[C@@H](CN[C@@H]3CCSc4ccccc43)N2C1=O [Compound 68, (S)—N-((4S,7S,9aS)-8,8-dimethyl-5-oxo-7-((((R)-thiochroman-4-yl)amino)methyl)octahydropyrrolo[2,1-b][1,3]oxazepin-4-yl)-2-(methylamino)propanamide dihydrochloride]	C (C=>50% viability)

same assay, conditions: 10 micromolar test compound, hydrochloride

SMILES	% viability after treatment with 10 micromolar of test compound (SKOV-3 cells)
C=CCC1(CC=C)C[C@@H]2OCC[C@H](NC(=O)[C@H](C)NC)C(=O)N2[C@@H]1C(=O)NC(c1ccccc1)c1ccccc1 [Compound 51, (4S)-8,8-diallyl-N-benzhydryl-4-((S)-2-(methylamino)propanamido)-5-oxooctahydropyrrolo[2,1-b][1,3]oxazepine-7-carboxamide hydrochloride]	B (B=26-50% viability)
CN[C@@H](C)C(=O)N[C@H]1CCO[C@H]2CC(CCc3ccccc3)(CCc3ccccc3)[C@@H](C(=O)N[C@@H]3CCCc4ccccc43)N2C1=O [Compound 26, (4S,9aS)-4-((S)-2-(methylamino)propanamido)-5-oxo-8,8-diphenethyl-N—((R)-1,2,3,4-tetrahydronaphthalen-1-yl)octahydropyrrolo[2,1-b][1,3]oxazepine-7-carboxamide hydrochloride]	C (C=>50% viability)
CCC1(CC)C[C@@H]2OCC[C@H](NC(=O)[C@H](C)NC)C(=O)N2[C@@H]1C(=O)NC(c1ccccc1)c1ccccc1 [Compound 58, (4S)—N-benzhydryl-8,8-diethyl-4-((S)-2-(methylamino)propanamido)-5-oxooctahydropyrrolo[2,1-b][1,3]oxazepine-7-carboxamide hydrochloride]	B (B=26-50% viability)
C=CCC1(CC=C)C[C@@H]2OCC[C@H](NC(=O)[C@H](C)NC)C(=O)N2[C@@H]1C(=O)NC(c1ccccc1)c1ccccc1 [Compound 52, (4S)-8,8-diallyl-N-benzhydryl-4-((S)-2-(methylamino)propanamido)-5-oxooctahydropyrrolo[2,1-b][1,3]oxazepine-7-carboxamide hydrochloride]	B (B=26-50% viability)
CN[C@@H](C)C(=O)N[C@H]1CCS[C@H]2CC(C(C)C)(C(C)C)[C@@H](C(=O)N[C@@H]3CCCc4ccccc43)N2C1=O [Compound 43, 4S,9aS)-8,8-diisopropyl-4-((S)-2-(methylamino)propanamido)-5-oxo-N—((R)-1,2,3,4-tetrahydronaphthalen-1-yl)octahydropyrrolo[2,1-b][1,3]thiazepine-7-carboxamide hydrochloride]	C (C=>50% viability)
CN[C@@H](C)C(=O)N[C@H]1CCO[C@H]2CC(CCc3ccccc3)(CCc3ccccc3)[C@@H](C(=O)N[C@@H]3CCCc4ccccc43)N2C1=O [Compound 24, (4S,9aS)-4-((S)-2-(methylamino)propanamido)-5-oxo-8,8-diphenethyl-N—((R)-1,2,3,4-tetrahydronaphthalen-1-yl)octahydropyrrolo[2,1-b][1,3]oxazepine-7-carboxamide hydrochloride]	B (B=26-50% viability)
CN[C@@H](C)C(=O)N[C@H]1CCS[C@H]2CC(CCc3ccccc3)[C@@H](C(=O)N[C@@H]3CCCc4ccccc43)N2C1=O (stereo partly drawn) [Compound 46, (4S,9aS)-4-((S)-2-(methylamino)propanamido)-5-oxo-8,8-phenethyl-N—((R)-1,2,3,4-tetrahydronaphthalen-1-yl)octahydropyrrolo[2,1-b][1,3]thiazepine-7-carboxamide hydrochloride]	B (B=26-50% viability)
CN[C@@H](C)C(=O)N[C@H]1CCO[C@H]2CC(C(C)C)(C(C)C)[C@@H](C(=O)NC(c3ccccc3)c3ccccc3)N2C1=O [Compound 60, (4S)—N-benzhydryl-8,8-diisopropyl-4-((S)-2-(methylamino)propanamido)-5-oxooctahydropyrrolo[2,1-b][1,3]oxazepine-7-carboxamide hydrochloride]	A (A=0-25% viability)
CCC1(CC)C[C@@H]2OCC[C@H](NC(=O)[C@H](C)NC)C(=O)N2[C@@H]1C(=O)NC(c1ccccc1)c1ccccc1 [Compound 59, (4S)—N-benzhydryl-8,8-diethyl-4-((S)-2-(methylamino)propanamido)-5-oxooctahydropyrrolo[2,1-b][1,3]oxazepine-7-carboxamide hydrochloride]	A (A=0-25% viability)
CN[C@@H](C)C(=O)N[C@H]1CCS[C@H]2CC(C(C)C)(C(C)C)[C@@H](C(=O)N[C@@H]3CCCc4ccccc43)N2C1=O [Compound 40, 4S,9aS)-8,8-diisopropyl-4-((S)-2-(methylamino)propanamido)-5-oxo-N—((R)-1,2,3,4-tetrahydronaphthalen-1-yl)octahydropyrrolo[2,1-b][1,3]thiazepine-7-carboxamide hydrochloride]	C (C=>50% viability)
CCC1(CC)C[C@@H]2SCC[C@H](NC(=O)[C@H](C)NC)C(=O)N2[C@@H]1C(=O)N[C@@H]1CCCc2ccccc21 [Compound 35, (4S,9aS)-8,8-diethyl-4-((S)-2-(methylamino)propanamido)-5-oxo-N—((R)-1,2,3,4-tetrahydronaphthalen-1-yl)octahydropyrrolo[2,1-b][1,3]thiazepine-7-carboxamide hydrochloride]	A (A=0-25% viability)
CN[C@@H](C)C(=O)N[C@H]1CCO[C@H]2CC(C(C)C)(C(C)C)[C@@H](C(=O)NC(c3ccccc3)c3ccccc3)N2C1=O [Compound 61, (4S)—N-benzhydryl-8,8-diisopropyl-4-((S)-2-(methylamino)propanamido)-5-oxooctahydropyrrolo[2,1-b][1,3]oxazepine-7-carboxamide hydrochloride]	B (B=26-50% viability)
CN[C@@H](C)C(=O)N[C@H]1CCS[C@H]2CC(C(C)C)(C(C)C)[C@@H](C(=O)N[C@@H]3CCCc4ccccc43)N2C1=O [Compound 42, 4S,9aS)-8,8-diisopropyl-4-((S)-2-(methylamino)propanamido)-5-oxo-N—((R)-1,2,3,4-tetrahydronaphthalen-1-yl)octahydropyrrolo[2,1-b][1,3]thiazepine-7-carboxamide hydrochloride]	C (C=>50% viability)

same assay, conditions: Homo sapiens, SK-OV-3, 10 micromolar test compound; SKOV-3 cells

SMILES	viability at 10 µM [%]
CN[C@@H](C)C(=O)N[C@H]1Cc2c([nH]c3ccccc23)[C@H]2CC(C)(C)[C@@H](C(=O)NC(c3ccccc3)c3ccccc3)N2C1=O [Compound 54, (6S)—N-benzhydryl-2,2-dimethyl-6-((S)-2-(methylamino)propanamido)-5-oxo-1,2,3,5,6,7,12,12b-octahydropyrrolo[1′,2′:1,2]azepino[3,4-b]indole-3-carboxamide hydrochloride]	> 50
C#CCO[C@@H]1Cc2ccccc2[C@@H]1NC(=O)[C@H]1N2C(=O)[C@@H](NC(=O)[C@H](C)NC)CCS[C@H]2CC1(C)C [Compound 83, (2S)-1-{[(4S,7S,9aS)-8,8-Dimethyl-5-oxo-7-{[(1S,2R)-2-(prop-2-yn-1-yloxy)-2,3-dihydro-1H-inden-1-yl]carbamoyl}octahydropyrrolo[2,1-b][1,3]thiazepin-4-yl]amino}-N-methyl-1-oxopropan-2-ammonium chloride]	0 to 25
CN[C@@H](C)C(=O)N[C@H]1CCO[C@H]2CC(C)(C)C(c3nc4ccccc4o3)N2C1=O (stereo partly drawn) [Compound 72, (2S)—N-((4S,9aS)-7-(benzo[d]oxazol-2-yl)-8,8-dimethyl-5-oxooctahydropyrrolo[2,1-b][1,3]oxazepin-4-yl)-2-(methylamino)propanamide hydrochloride]	> 50
CN[C@@H](C)C(=O)N[C@H]1CCO[C@H]2CC(CCc3ccccc3)(CCc3ccccc3)C(C(=O)N[C@@H]3CCCc4ccccc43)N2C1=O (stereo partly drawn) [Compound 23, (4S,9aS)-4-((S)-2-(methylamino)propanamido)-5-oxo-8,8-diphenethyl-N—((R)-1,2,3,4-tetrahydronaphthalen-1-yl)octahydropyrrolo[2,1-b][1,3]oxazepine-7-carboxamide hydrochloride]	26 to 50
CN[C@@H](C)C(=O)N[C@H]1Cc2ccc(OC)cc2[C@H]2CC(C)(C)[C@H](C(=O)N[C@@H]3CCCc4ccccc43)N2C1=O [Compound 10, (6S,11bR)-10-methoxy-2,2-dimethyl-6-((S)-2-(methylamino)propanamido)-5-oxo-N—((R)-1,2,3,4-tetrahydronaphthalen-1-yl)-2,3,5,6,7,11b-hexahydro-1H-benzo[c]pyrrolo[1,2-a]azepine-3-carboxamide hydrochloride]	26 to 50
CN[C@@H](C)C(=O)N[C@H]1Cc2cc(OC)ccc2[C@H]2CC(C)(C)[C@H](C(=O)N[C@@H]3CCCc4ccccc43)N2C1=O [Compound 8, (6S,11bR)-9-methoxy-2,2-dimethyl-6-((S)-2-(methylamino)propanamido)-5-oxo-N—((R)-1,2,3,4-tetrahydronaphthalen-1-yl)-2,3,5,6,7,11b-hexahydro-1H-benzo[c]pyrrolo[1,2-a]azepine-3-carboxamide hydrochloride]	26 to 50
CN[C@@H](C)C(=O)N[C@@H]1C(=O)N2[C@H](CC(C)[C@H]2C(=O)N[C@@H]2CCCc3ccccc32)OC2CCCCC21 (stereo partly shown) [Compound 64, hydrochloride]	0 to 25
